Assays:
ROCK-II = ROCK-II (Homo sapiens, UniProt O75116); test: ROCK-II biochemical assay; conditions: ROCK-II IC50, as given in text
[1] = test system: myosin light chain bisphosphorylation (ppMLC); test: cell-based myosin light chain bisphosphorylation; conditions: read-out: ppMLC cell-based IC50
Akt3 = Akt3 (Homo sapiens, UniProt Q9Y243); test: Ambit kinase screen, single-point, Akt3; format: binding; conditions: read-out: percentage inhibition Akt3
Clk1 = Clk1 (Homo sapiens, UniProt P49759); test: Ambit kinase screen, single-point, Clk1; format: binding; conditions: read-out: percentage inhibition Clk1
Clk2 = Clk2 (Homo sapiens, UniProt P49760); test: Ambit kinase screen, single-point, Clk2; format: binding; conditions: read-out: percentage inhibition Clk2
Clk4 = Clk4 (Homo sapiens, UniProt Q9HAZ1); test: Ambit kinase screen, single-point, Clk4; format: binding; conditions: read-out: percentage inhibition Clk4
Lats2 = target: T1, Lats2 (Homo sapiens, UniProt Q9NRM7); test: Ambit kinase screen, single-point, Lats2; format: binding; conditions: read-out: percentage inhibition Lats2
T1 sequence (Q9NRM7 1-1088): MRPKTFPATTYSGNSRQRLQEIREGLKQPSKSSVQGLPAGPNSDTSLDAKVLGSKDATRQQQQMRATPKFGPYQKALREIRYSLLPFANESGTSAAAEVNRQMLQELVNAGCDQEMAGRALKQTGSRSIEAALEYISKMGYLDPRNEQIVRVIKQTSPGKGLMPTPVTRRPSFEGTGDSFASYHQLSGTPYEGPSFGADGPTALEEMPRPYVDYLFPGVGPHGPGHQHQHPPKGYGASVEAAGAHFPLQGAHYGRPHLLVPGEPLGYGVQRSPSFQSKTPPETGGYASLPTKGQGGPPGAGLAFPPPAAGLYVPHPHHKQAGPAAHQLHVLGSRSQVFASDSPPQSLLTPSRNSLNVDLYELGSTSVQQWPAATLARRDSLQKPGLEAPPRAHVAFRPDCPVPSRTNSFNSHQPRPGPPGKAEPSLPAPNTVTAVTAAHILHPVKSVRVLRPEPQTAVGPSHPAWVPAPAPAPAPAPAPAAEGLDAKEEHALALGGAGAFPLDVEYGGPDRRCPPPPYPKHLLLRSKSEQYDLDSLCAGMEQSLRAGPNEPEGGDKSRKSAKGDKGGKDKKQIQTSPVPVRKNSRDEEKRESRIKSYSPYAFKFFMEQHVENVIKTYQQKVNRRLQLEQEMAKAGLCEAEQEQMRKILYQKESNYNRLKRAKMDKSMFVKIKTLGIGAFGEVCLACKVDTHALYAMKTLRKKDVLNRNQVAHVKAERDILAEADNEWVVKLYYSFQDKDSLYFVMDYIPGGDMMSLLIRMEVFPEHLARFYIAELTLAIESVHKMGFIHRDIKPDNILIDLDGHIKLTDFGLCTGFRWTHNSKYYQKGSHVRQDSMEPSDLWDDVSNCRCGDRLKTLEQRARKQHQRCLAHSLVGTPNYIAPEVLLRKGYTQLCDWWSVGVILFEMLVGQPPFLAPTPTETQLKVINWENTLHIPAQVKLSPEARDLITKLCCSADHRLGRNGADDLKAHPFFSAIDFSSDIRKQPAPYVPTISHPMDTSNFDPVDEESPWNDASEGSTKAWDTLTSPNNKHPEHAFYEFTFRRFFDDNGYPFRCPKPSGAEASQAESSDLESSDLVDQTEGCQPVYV

353 kinases = test: profiling versus 353 kinases; format: binding; conditions: 3 µM
adrenergic receptor α1a = target: T2, adrenergic receptor α1a (Homo sapiens, UniProt P35348); test: nonkinase panel, adrenergic receptor α1a; format: binding
T2 sequence (P35348 1-466): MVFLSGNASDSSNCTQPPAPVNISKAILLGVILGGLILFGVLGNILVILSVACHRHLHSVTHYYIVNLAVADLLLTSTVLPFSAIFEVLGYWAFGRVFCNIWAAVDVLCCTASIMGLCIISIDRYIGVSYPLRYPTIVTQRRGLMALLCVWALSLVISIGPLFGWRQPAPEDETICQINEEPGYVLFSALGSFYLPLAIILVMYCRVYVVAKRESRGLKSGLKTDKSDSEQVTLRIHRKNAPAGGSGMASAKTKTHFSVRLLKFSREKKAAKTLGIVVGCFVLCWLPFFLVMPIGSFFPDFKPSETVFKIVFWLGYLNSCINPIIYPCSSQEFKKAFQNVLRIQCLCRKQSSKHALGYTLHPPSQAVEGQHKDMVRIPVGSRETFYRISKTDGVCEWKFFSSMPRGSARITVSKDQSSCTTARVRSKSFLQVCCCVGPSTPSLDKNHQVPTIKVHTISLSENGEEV

adrenergic receptor α1b = target: T3, adrenergic receptor α1b (Homo sapiens, UniProt P35368); test: nonkinase panel, adrenergic receptor α1b; format: binding
T3 sequence (P35368 1-520): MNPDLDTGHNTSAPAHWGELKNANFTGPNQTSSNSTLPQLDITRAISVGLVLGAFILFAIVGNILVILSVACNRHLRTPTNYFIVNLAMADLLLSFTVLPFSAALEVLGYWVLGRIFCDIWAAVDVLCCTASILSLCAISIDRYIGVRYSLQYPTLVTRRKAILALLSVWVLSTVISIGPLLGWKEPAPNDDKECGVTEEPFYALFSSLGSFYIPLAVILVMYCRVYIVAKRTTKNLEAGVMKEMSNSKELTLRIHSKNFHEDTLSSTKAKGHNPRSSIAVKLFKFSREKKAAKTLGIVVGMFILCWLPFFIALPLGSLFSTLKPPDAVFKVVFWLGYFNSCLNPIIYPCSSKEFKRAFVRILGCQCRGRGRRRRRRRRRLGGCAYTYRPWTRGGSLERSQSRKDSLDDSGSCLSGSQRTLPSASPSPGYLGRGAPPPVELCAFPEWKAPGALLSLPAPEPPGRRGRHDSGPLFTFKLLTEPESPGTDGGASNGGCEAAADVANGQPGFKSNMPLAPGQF

adrenergic receptor α2a = target: T4, adrenergic receptor α2a (Homo sapiens, UniProt P08913); test: nonkinase panel, adrenergic receptor α2a; format: binding
T4 sequence (P08913 1-465): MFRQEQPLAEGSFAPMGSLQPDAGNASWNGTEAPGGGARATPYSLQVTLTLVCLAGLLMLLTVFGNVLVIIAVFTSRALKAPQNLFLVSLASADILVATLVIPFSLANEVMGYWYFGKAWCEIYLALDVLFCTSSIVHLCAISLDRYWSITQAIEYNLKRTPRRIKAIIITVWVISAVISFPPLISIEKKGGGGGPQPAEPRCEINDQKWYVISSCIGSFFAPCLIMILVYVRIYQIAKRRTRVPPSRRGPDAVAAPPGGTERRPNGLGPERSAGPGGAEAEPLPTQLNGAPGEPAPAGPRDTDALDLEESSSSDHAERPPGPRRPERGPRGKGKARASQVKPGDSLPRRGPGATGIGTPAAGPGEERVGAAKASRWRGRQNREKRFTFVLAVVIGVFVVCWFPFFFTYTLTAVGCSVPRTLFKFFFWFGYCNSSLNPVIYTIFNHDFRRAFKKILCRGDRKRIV

[2] = test system: p-MLC in trabecular meshwork tissue; test: Western blot analysis of p-MLC in TM tissue from perfused porcine eyes; conditions: 25 µM, perfused at 15 mmHg for 5 h
[3] = test system: aqueous humor outflow facility from the trabecular meshwork; test: ex vivo aqueous humor outflow facility in perfused enucleated porcine eyes; conditions: 25 µM continuous exposure, 2–5 h time points, p < 0.01, porcine eyes ex vivo

Clk4, sequence (Q9HAZ1 whole entry): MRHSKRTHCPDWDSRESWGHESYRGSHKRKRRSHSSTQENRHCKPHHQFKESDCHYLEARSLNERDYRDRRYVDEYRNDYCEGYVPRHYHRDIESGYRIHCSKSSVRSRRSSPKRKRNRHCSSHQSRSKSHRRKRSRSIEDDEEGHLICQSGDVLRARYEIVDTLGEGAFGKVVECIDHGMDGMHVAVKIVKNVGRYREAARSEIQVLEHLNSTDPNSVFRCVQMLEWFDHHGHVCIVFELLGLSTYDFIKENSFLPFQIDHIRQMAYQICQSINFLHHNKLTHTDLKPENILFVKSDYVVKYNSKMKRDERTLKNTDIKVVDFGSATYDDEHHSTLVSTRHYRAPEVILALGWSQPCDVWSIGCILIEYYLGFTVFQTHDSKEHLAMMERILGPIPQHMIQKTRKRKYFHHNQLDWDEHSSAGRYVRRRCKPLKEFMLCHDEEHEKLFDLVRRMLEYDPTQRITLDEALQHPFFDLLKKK
Akt3, sequence (Q9Y243 whole entry): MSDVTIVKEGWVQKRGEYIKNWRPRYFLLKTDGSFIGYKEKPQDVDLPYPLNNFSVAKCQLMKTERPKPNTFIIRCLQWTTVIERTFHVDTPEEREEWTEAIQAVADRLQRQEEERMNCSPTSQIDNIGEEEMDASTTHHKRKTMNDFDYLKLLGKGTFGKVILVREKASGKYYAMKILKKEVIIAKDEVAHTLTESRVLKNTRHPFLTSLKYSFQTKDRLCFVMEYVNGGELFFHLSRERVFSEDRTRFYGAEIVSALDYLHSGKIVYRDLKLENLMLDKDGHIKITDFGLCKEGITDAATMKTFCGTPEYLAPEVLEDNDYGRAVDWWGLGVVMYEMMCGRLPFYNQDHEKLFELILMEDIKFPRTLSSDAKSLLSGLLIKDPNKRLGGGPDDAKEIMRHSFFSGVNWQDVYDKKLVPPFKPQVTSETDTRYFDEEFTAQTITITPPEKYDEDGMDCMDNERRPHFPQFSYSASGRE
Clk2, sequence (P49760 whole entry): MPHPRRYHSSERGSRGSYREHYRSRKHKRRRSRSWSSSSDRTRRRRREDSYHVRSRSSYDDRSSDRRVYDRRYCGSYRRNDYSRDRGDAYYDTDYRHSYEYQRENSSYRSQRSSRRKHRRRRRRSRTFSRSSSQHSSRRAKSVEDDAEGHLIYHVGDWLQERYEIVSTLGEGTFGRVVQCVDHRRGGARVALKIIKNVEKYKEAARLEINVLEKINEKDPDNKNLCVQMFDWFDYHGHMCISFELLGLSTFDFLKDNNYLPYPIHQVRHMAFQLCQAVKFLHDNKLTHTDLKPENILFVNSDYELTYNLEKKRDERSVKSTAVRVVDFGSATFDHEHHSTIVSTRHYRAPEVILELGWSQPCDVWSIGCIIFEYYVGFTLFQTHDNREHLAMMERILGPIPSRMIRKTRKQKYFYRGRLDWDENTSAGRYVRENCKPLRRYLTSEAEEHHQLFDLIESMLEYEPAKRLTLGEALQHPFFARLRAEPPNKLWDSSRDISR
ROCK-II, sequence (O75116 whole entry, species assumed): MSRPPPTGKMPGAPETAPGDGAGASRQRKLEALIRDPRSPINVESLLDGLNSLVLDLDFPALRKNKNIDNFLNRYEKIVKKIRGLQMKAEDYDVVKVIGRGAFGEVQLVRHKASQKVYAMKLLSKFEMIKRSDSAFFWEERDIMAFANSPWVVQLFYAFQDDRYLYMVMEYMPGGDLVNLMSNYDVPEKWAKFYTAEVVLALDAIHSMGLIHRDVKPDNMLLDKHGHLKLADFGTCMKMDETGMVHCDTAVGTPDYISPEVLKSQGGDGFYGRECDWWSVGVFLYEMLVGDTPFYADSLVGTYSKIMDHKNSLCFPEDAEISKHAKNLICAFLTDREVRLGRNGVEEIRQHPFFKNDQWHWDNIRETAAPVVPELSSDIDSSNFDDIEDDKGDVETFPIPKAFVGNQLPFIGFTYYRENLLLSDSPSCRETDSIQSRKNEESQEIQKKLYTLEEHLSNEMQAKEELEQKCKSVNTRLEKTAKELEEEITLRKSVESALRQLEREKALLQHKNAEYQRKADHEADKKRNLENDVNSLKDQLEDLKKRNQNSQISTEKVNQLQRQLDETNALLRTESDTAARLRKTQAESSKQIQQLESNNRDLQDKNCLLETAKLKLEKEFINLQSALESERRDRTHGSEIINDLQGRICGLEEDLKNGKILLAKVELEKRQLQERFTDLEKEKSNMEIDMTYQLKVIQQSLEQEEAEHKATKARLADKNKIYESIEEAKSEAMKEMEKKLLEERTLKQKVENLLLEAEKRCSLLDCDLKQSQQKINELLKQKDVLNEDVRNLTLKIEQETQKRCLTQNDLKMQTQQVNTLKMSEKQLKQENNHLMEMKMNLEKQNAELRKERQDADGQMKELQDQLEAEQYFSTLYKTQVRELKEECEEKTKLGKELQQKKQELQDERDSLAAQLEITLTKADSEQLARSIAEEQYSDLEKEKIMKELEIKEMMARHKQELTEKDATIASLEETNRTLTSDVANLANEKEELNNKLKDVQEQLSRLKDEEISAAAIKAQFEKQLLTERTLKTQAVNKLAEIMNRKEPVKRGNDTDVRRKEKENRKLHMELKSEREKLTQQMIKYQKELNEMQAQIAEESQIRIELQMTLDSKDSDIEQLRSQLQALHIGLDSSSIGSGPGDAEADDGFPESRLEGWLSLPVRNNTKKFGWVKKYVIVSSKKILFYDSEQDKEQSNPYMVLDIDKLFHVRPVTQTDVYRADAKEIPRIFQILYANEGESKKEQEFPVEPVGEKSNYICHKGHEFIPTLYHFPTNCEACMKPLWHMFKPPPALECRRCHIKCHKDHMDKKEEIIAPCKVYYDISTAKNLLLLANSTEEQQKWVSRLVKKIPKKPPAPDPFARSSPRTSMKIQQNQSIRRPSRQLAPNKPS
Clk1, sequence (P49759 whole entry): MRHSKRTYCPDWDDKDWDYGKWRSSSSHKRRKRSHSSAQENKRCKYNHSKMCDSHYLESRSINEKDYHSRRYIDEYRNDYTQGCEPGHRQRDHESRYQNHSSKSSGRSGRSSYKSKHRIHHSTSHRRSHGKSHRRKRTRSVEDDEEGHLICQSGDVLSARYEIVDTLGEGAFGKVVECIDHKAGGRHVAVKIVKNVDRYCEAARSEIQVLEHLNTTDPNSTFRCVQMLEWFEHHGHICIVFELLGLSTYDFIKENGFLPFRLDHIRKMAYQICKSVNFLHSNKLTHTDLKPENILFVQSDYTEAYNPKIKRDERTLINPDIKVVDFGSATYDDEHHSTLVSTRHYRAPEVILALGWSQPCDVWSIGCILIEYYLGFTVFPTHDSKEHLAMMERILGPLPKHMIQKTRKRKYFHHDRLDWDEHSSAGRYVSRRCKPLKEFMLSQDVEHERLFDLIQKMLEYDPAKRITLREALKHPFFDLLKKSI

## CN(C)CCOc1cc(-c2cn[nH]c2)ccc1NC(=O)C1COc2ccccc2O1 (centres unmarked) [Compound 5]
ROCK-II
  IC50: ~0.003 µM
[1]
  IC50: ~0.003 µM
Akt3
  inhibition at 3 µM: > 50%
Clk1
  inhibition at 3 µM: > 50%
Clk2
  inhibition at 3 µM: > 50%
Clk4
  inhibition at 3 µM: > 50%
Lats2
  inhibition at 3 µM: > 50%
353 kinases; 353 kinases, hits = inhibition greater than 50%
  off-target hit rate: 1.4%
353 kinases; single-point, no or very low inhibition
  inhibition of all other kinases of the panel: < 10%
Adrenergic receptor α1a
  IC50: ~1 µM
Adrenergic receptor α1b
  IC50: ~1 µM
Adrenergic receptor α2a
  IC50: ~1 µM
[2]
  inhibition of Rho kinase in the TM tissue (p-MLC Western blot): greater than 90%
[3]
  increase of aqueous humor outflow facility: 70–80%

Source: PMC3708311 (Journal of medicinal chemistry, 2008)
